Marks after values point to notes of the source that are not given here.
How the values were obtained:
[1] = system: influenza A/WSN/33 virus
[2] = in vitro; details: human
[3] = system: influenza A virus (FluA)
[4] = system: A549 cells; details: human
[5] = system: influenza A virus (FluA); test: in vitro; details: human
[6] = system: influenza A virus (FluA); test: microbe, parasite or virus in culture; details: A549, read-out: IC50 (A549)

Row | SMILES | efficiency of growth enhancement relative to 2′,4′-dichlorobenzamil [1] | influenza virus growth versus untreated control [1] | CC50 [2] | Inhibition of FluA (Table 5) [3] | CC10 (A549), concentration of 10% cytotoxicity [4] | selectivity ratio [5] | IC50 [6]
1 | N/C(=N\C(=O)c1nc(Cl)c(N)nc1N)NCc1ccc(Cl)c(Cl)c1 [3′,4′-dichlorobenzamil] | 10 times less efficient | boost influenza virus replication | – | – | – | – | –
2 | CCN(CC)S(=O)(=O)c1ccc(-c2nnc(SCC(=O)N3CCCC3)o2)cc1 [A3-1] | – | – | 316 µM | ~29%** | 17.3 µM | – | –
3 | CCN(CC)C(=O)CSc1nnc(-c2ccc3[nH]c(C)c(C)c3c2)o1 [A3-2, 2-(5-(2,3-dimethyl-1H-indol-5-yl)-1,3,4-oxadiazol-2-ylthio)-N,N-diethylacetamide] | – | – | 198 µM | ~97%** | 29 µM | > 165 | 1.2 µM
4 | Cc1[nH]c2ccc(-c3nnc(SCC(=O)N4CCc5ccccc54)o3)cc2c1C [A3-3, 2-(5-(2,3-dimethyl-1H-indol-5-yl)-1,3,4-oxadiazol-2-ylthio)-1-(indolin-1-yl)ethanone] | – | – | 65 µM | ~50%** | 8.5 µM | 8 | 8.5 µM
5 | Cc1[nH]c2ccc(-c3nnc(SCC(=O)N(C(C)C)C(C)C)o3)cc2c1C [A3-4, 2-(5-(2,3-dimethyl-1H-indol-5-yl)-1,3,4-oxadiazol-2-ylthio)-N,N-diisopropylacetamide] | – | – | 17.7 µM | ~87.5%** | 10.7 µM | 11 | 1.65 µM
6 | Cc1[nH]c2ccc(-c3nnc(SCC(=O)N4CCOCC4)o3)cc2c1C [A3-5, 2-(5-(2,3-dimethyl-1H-indol-5-yl)-1,3,4-oxadiazol-2-ylthio)-1-morpholinoethanone] | – | – | 257 µM | ~97%** | 10.2 µM | 514 | 0.5 µM
7 | Cc1[nH]c2ccc(-c3nnc(SCC(=O)N4CCCCCC4)o3)cc2c1C [A3-6, 1-(azepan-1-yl)-2-(5-(2,3-dimethyl-1H-indol-5-yl)-1,3,4-oxadiazol-2-ylthio)ethanone] | – | – | 179 µM | ~87.5%** | 18.2 µM | 180 | 0.98 µM
8 | O=C(CSc1nnc(-c2cc3ccccc3[nH]2)o1)N1CCCC1 [A3-7] | – | – | 134 µM | ~29%** | 15.2 µM | – | –
9 | COc1ccc(-c2nnc(SCC(=O)N3CCCC3)o2)cc1 [A3-8] | – | – | 250 µM | none** | 11.8 µM | – | –
10 | O=C(CSc1nnc(-c2cc3ccccc3o2)o1)N1CCCC1 [A3-9] | – | – | 197 µM | ~29%** | 10.9 µM | – | –
11 | O=C(CSc1nnc(-c2cccnc2)o1)N1CCCC1 [A3-11] | – | – | 249 µM | none** | 32.6 µM | – | –
12 | O=C(CSc1nnc(-c2ccncc2)o1)N1CCCC1 [A3-12] | – | – | 186 µM | ~29%** | 11.5 µM | – | –
13 | CN(Cc1ccccc1)c1nc(-c2ccc([N+](=O)[O-])cc2)cs1 [A35-1, N-methyl-4-(4-nitrophenyl)-N-(phenylmethyl)-2-thiazolamine] | – | – | 201 µM | ~75%** | 10.8 µM | 62 | 3.24 µM
14 | CN(c1nc(-c2ccccc2)cs1)C1CCS(=O)(=O)C1 (centres unmarked) [A35-2] | – | – | 148 µM | none** | 12.2 µM | – | –
15 | Nc1nc(-c2ccc(Cl)cc2)cs1 [A35-3] | – | – | 165 µM | none** | 11.4 µM | – | –

From patent publication US8629283B2, “Compounds that modulate negative-sense, single-stranded RNA virus replication and uses thereof” (Icahn School of Medicine at Mount Sinai, priority 2008, dated 2014)
